Earlier results as cited in US20070043054A1, “Enzyme cofactor combination for supplementing pyruvate dehydrogenase and alpha ketogluterate dehydrogenase complexes” (priority 2004, published 2007).

Tests used:
[1] = for stability in aqueous solution: neutral or alkaline solutions

SMILES	temperature up to which the dry form is stable ([1]; dry form)	solubility in water	stability in aqueous solution [1]	stability to dry heat [1]	solubility in alkali (alkali)	solubility in organic solvents (organic solvents)
O=C(O)c1cccnc1 [niacin]	about 60 °C	–	–	–	–	–
NC(=O)c1cccnc1 [Niacinamide]	–	soluble in water and ethanol	stable for a short period when autoclaved	–	–	–
Cc1ncc(C[n+]2csc(CCO)c2C)c(N)n1 [Thiamine]	–	water-soluble	rapidly broken down in neutral or alkaline solutions	comparatively stable to dry heat	–	–
Cc1cc2nc3c(=O)[nH]c(=O)nc-3n(C[C@H](O)[C@H](O)[C@H](O)CO)c2cc1C [Riboflavin]	–	very slightly soluble in water	stable to oxidizing agents in strong mineral acids and in neutral aqueous solution	stable to dry heat	soluble in alkali	insoluble in most organic solvents
